Columns and labels:
[1] = biological target: T1, Rlip (RLIP76) purified from H358 and H1618 cells (Homo sapiens, UniProt Q15311); test: […]-DOX uptake into Rlip proteoliposomes, rapid filtration; format: biochemical; conditions: read-out: % inhibition of DOX transport at 20 μM
T1 construct: gene RALBP1
T1 sequence (Q15311 2-655): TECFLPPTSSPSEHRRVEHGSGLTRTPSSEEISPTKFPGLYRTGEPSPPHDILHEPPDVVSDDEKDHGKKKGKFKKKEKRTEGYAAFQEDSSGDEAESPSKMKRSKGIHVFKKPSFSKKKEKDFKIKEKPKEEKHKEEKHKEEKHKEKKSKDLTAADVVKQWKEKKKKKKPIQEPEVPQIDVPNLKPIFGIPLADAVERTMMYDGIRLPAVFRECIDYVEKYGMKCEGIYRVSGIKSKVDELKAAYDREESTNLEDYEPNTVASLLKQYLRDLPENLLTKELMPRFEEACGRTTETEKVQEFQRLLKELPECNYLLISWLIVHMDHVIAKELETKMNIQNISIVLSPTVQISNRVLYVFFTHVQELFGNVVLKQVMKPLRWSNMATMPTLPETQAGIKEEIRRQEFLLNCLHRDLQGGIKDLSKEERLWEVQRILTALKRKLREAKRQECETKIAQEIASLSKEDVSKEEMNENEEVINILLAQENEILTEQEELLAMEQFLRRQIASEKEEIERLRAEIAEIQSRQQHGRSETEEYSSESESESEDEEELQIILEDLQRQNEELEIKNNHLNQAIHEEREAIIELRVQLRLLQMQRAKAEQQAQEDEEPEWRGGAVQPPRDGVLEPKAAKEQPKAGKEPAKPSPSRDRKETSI

[2] = biological target: T2, recombinant RLIP (RLIP76) (Homo sapiens, UniProt Q15311); test: DNP-SG affinity resin binding and elution with free DNP-SG; conditions: 0.2 mM DNP-SG, 10 mM ATP, 10 mM MgCl2; also stimulates the ATPase as allocrite
T2 construct: gene RALBP1; fragments incl; 38 kDa present
T2 sequence (Q15311 1-655): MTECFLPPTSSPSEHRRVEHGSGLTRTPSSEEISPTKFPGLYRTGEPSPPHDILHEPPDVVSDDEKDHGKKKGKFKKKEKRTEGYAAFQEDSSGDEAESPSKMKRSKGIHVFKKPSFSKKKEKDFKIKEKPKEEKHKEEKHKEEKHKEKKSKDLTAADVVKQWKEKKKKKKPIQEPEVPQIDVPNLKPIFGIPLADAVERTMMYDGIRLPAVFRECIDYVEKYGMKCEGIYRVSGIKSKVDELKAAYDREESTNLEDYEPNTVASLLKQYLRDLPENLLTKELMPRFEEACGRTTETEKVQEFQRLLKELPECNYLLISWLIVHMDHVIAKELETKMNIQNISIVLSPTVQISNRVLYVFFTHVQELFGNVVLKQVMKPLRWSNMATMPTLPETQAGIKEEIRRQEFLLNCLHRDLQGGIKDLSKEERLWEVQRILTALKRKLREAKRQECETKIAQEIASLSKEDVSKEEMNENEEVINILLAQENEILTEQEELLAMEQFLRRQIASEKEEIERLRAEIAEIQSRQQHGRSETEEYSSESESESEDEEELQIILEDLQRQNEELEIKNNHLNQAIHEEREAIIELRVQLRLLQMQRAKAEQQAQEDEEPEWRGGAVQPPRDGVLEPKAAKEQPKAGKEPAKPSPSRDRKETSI

Structure (SMILES)	inhibition at 20 µM [1] [%]	DNP-SG affinity resin binding and elution with free DNP-SG [2]
O=C1CC(c2ccccc2O)Oc2ccccc21 (centres unmarked) [2HF, 2'-hydroxyflavanone]	22	–
N[C@@H](CCC(=O)N[C@@H](CSc1ccc([N+](=O)[O-])cc1[N+](=O)[O-])C(=O)NCC(=O)O)C(=O)O [DNP-SG, dinitrophenyl-S-glutathione]	–	the same major Rlip protein bands were observed in the 2HF eluate as in the DNP-SG eluate
